Reference: patent publication US20130059850A1, “AZA-INDOLE DERIVATIVES USEFUL AS MODULATORS OF FAAH” (MERCK SHARP & DOHME CORP., priority 2010, published 2013)
pIC50: −log10 of the molar value.

biological target: T1, human FAAH (Fatty Acid Amide Hydrolase) (Homo sapiens, UniProt O00519); test: FAAH enzyme assay on CHO cell lysate expressing human FAAH (human LY), AAMCA fluorescent substrate; format: biochemical; conditions: human FAAH_CHO cell lysate
T1 construct: The full length FAAH was subcloned into the mammalian expression vector, pcDEF.neo, using XbaI and EcoRI restriction sites; expressed in transfected cells
T1 sequence (O00519 1-579): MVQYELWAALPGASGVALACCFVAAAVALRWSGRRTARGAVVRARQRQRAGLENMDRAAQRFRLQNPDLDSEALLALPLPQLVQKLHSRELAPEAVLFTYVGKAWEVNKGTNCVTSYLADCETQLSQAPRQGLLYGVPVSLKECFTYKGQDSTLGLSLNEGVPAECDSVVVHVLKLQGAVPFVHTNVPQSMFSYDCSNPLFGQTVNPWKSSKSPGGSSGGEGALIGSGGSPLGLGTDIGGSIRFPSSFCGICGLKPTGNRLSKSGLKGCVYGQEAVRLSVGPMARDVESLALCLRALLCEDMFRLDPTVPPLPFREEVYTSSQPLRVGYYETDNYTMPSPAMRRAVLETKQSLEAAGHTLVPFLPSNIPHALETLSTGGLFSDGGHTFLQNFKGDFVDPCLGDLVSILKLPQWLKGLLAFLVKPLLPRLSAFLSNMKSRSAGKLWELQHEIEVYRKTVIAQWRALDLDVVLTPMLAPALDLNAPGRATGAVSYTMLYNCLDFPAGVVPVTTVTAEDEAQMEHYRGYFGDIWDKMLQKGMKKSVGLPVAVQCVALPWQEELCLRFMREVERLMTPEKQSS
From the text: (§1) To assist in assay development stable cell lines for human, murine and rat full length FAAH were developed. Human FAAH cDNA (Accession No: NM_001441.1) was purchased from Origene (Rockville, Md.). The full length FAAH was subcloned into the mammalian expression vector, pcDEF.neo, using XbaI and EcoRI restriction sites and used for stable cell line generation.
CHO cells expressing FAAH were used to prepare either crude cell lysate or microsome fractions. To harvest cells, tissue culture media was decanted, the monolayer washed three times with Ca^++Mg^++ free PBS and cells recovered after […] in enzyme free dissociation media (Millipore Corp, Billerica, Mass.). Cells were collected by centrifuging at 2000 rpm for 15 min. and the cell pellet re-suspended with 50 mM HEPES (pH 7.4) containing 1 mM EDTA and the protease inhibitors aprotinin (1 mg/ml) and leupeptin (100 μM). The suspension was sonicated at 4° C. and the cell lysate recovered after centrifuging at 12,000×g (14,600 rpm, SS34 rotor) for 20 min at 4° C. to form a crude pellet of cell debris, nuclei, peroxisomes, lysosomes, and mitochondria; the supernatant or cell lysate was used for FAAH enzyme assay. In some cases, microsomes fractions enriched in FAAH were prepared by centrifuging the cell lysate further at 27,000 rpm (100,000×g) in SW28 rotor for 50 minutes at 4° C. The pellet containing FAAH-enriched microsomes was re-suspend in 50 mM HEPES, (pH 7.4) 1 mM EDTA, and any remaining DNA sheared by passage of material through a 23 gauge needle and aliquots of enzyme were store at −80° C. prior to use.
(§2) (American Radiolabeled Chemicals; 1 mCi/ml) with FAAH (Life Sciences (1995), 56, 1999-2005 and Journal of Pharmacology and Experimented Therapeutics (1997), 283, 729-734), Analytical. Biochemistry (2003), 318, 270-5. In addition, routine assays were performed monitoring hydrolysis of arachidonyl-7-amino-4-methylcoumarin amide (AAMCA) by following increase in fluorescence upon release of 7-amino 4-methyl coumarin (λEX=355 nm, μEM=460 nm). Analytical. Biochemistry (2005). 343, 143-51
(§3) Assays are performed on either cell lysate or microsome fractions prepared as described or in whole cell format employing either the fluorescent substrate AAMCA (Cayman chemical, Ann Arbor, Mich.,) or ^3H-anandamide ([ETHANOLAMINE-1-3H] American Radiolabeled Chemicals; 1 mCi/ml). The cell lysate or microsome assay is performed in black PerkinElmer OptiPlates-384F by adding FAAH_CHO (whole cell (human whole cell or human WC), cell lysate (human cell lysate or human LY) or microsome) in assay buffer (50 mM Phosphate, pH 8.0, 1 mM EDTA, 200 mM KCl, 0.2% glycerol, 0.1% fatty acid free BSA) to each well, followed by either DMSO or compound and allowed to incubate at 22-25° C. for fifteen minutes. AAMCA substrate was used to achieve a final concentration of 1 μM and reaction allowed to proceed at room temperature for 1-3 hours. Fluorescent release as a measure of FAAH activity was monitored by reading the plate in a Envision plate Reader (Ex: 360/40 nM; Em: 460/40 nM). Whole cell assay is conducted with cells harvested after rinsing tissue culture flasks three times with Ca^++Mg^++ free PBS, incubating for […] in Enzyme free dissociation media and centrifuging for 5 minutes at 1,000 rpm in table top centrifuge. Cells are resuspended in assay buffer at desired cell number in (4×10^4 cells/assay in 96-well format; 1×10^4 cells/assay in 384-well format) and assayed as described.

Row | pIC50 | Structure (SMILES)
1 | 8.00 | Cn1cccc2c(Sc3ccc(Cl)cc3)c([C@H]3CC[C@H](O)CC3)nc1-2 [Example E7]
2 | 8.19 | Clc1ccc(Sc2c(-c3ccc(C4CC4)nc3)[nH]c3ncccc23)cc1 [Example B37]
3 | 6.60 | O=C(O)C1CC=C(c2[nH]c3ncccc3c2Sc2ccc(Cl)cc2)CC1 (stereo not drawn) [Example B47]

biological target: T1, human FAAH (Fatty Acid Amide Hydrolase); test: FAAH whole cell assay on CHO cells expressing human FAAH (human WC), AAMCA fluorescent substrate; format: cell-based; conditions: human FAAH_CHO whole cell
From the text: as §1
Murine (accession number NM_010173) and Rat FAAH (accession number NM_024132) was amplified by reverse transcriptase polymerase chain reaction (RT-PCR) from brain cDNA (BD Biosciences, San Jose, Calif.) using primers 1 and 2 or primers 1 and 3 respectively (see Table). The resulting PCR product was ligated into pCR4 TOPO and DNA sequence confirmed. The full length murine FAAH was subcloned into the mammalian expression vector, pcDEFneo using either EcoRI (murine) or KpnI and EcoRI (rat) restriction sites. Chinese hamster ovary cells (CHO) were transfected following manufacturers protocol (AMAXA). Forty eight hours post transfection, cells were trypsinized and transferred to 96 well plates in Iscove's DMEM media supplemented with 2 mM Glutamine, 10% fetal calf serum, 1 mg/ml geneticin and HT Supplement (0.1 mM sodium hypoxanthine, 0.016 mM thymidine) in order to isolate single clones. Following selection in geneticin, individual clones were selected and FAAH activity was assessed using a whole cell fluorescent anandamide assay, modified from Ramarao et al (2005). Following removal of tissue culture media cells were dislodged following addition of Cellstripper (Mediatech, Inc. Manassas, Va.) and transferred to 96 well black clear bottom assay plate, centrifuged at 1,000 rpm for 3 mins and media removed and replaced with assay buffer (50 mM Tris pH8.0, 1 mM EDTA, 0.1% fatty acid free BSA). The reaction was initiated by addition of fluorescent substrate, AMC Arachidonoyl Amide (Cayman Chemical, Ann Arbor, Mich.) to 1 μM and reaction allowed to proceed for 2 hours at room temperature. Release of fluorescence was monitored in a CytoFluor Multiplate Reader. Cells expressing the highest amount of FAAH activity were selected for study with FAAH inhibitors.
as §2
as §3, with “Cells are resuspended in assay buffer at desired cell number in (4×10^4 cells/assay in 96-well format; 1×10^4 cells/assay in 384-well format) and assayed as described.” left out

Row | pIC50 | Structure (SMILES)
4 | 7.73 | Cn1cccc2c(Sc3ccc(Cl)cc3)c([C@H]3CC[C@H](O)CC3)nc1-2 [Example E7]
5 | 7.23 | Cn1cccc2c(Sc3ccc(Cl)cc3)c(-c3ccc(C(O)C(F)F)cc3)nc1-2 (stereo not drawn) [Example E25]
6 | 7.66 | Clc1ccc(Sc2c(-c3ccc(C4CC4)nc3)[nH]c3ncccc23)cc1 [Example B37]
7 | 6.24 | O=C(O)C1CC=C(c2[nH]c3ncccc3c2Sc2ccc(Cl)cc2)CC1 (stereo not drawn) [Example B47]
8 | 7.45 | OC[C@H]1CC[C@H](c2[nH]c3ncccc3c2Sc2ccc(Cl)cc2)CC1 [Example B52]
9 | 6.30 | Cn1cccc2c(Sc3ccc(Cl)cc3)c(C(=O)NC3CCC(O)CC3)nc1-2 (stereo not drawn) [Example E26]
10 | 7.62 | Cn1cccc2c(Sc3ccc(Cl)cc3)c(-c3ccc4c(c3)CNC4=O)nc1-2 [Example E28]
11 | 5.93 | O=C(NCC1(CO)CCOCC1)c1[nH]c2ncccc2c1Sc1ccc(Cl)cc1 [Example C22]
12 | 5.53 | O=C(NCCO)c1[nH]c2ncccc2c1Sc1ccc(Cl)cc1 [Example C18]
13 | 6.84 | Cn1cccc2c(Sc3ccc(Cl)cn3)c(-c3ccc4c(c3)CNC4=O)nc1-2 [Example E31]
14 | 7.06 | Cn1cc2cc(-c3nc4n(C)cccc-4c3Sc3ccc(Cl)cn3)ccc2n1 [Example E30]
15 | 7.05 | C[C@@H](Cc1[nH]c2ncccc2c1Sc1ccc(Cl)cc1)C(C)(C)O [Example H8]
16 | 5.92 | C[C@H](CO)Cc1[nH]c2ncccc2c1Sc1ccc(Cl)cc1 [Example H7]
17 | 6.17 | Clc1ccc(Sc2c(C3CCNCC3)[nH]c3ncccc23)cc1 [Example G3, 3-[(4-chlorophenyl)sulfanyl]-2-(piperidin-4-yl)-1H-pyrrolo[2,3-b]pyridine]
18 | 6.16 | OCCCc1[nH]c2ncccc2c1Sc1ccc(Cl)cc1 [Example H4, 3-{3-[(4-chlorophenyl)sulfanyl]-1,1-pyrrolo[2,3-b]pyridin-2-yl}propan-1-ol]
19 | 7.19 | CCOC(=O)CCc1[nH]c2ncccc2c1Sc1ccc(Cl)cc1 [Example F3, Ethyl 3-{3-[(4-chlorophenyl)sulfanyl]-1H-pyrrolo[2,3-b]pyridin-2-yl}propanoate]

Row | pIC50 | Structure (SMILES)
20 | 6.95 | C[C@@H](Cc1nc2n(C)cccc-2c1Sc1ccc(Cl)cc1)C(C)(C)O [Example E27]
21 | 6.57 | Clc1ccc(Sc2c(CC3CCCCC3)[nH]c3ncccc23)cc1 [Example F4]
22 | 7.76 | Cn1cc2cc(-c3nc4n(C)cccc-4c3Sc3ccc(Cl)cc3)ccc2n1 [Example E29]
23 | 7.60 | Cn1cc2cc(-c3[nH]c4ncccc4c3Sc3ccc(Cl)cn3)ccc2n1 [Example B44]
24 | 6.22 | O=C(NCCCO)c1[nH]c2ncccc2c1Sc1ccc(Cl)cc1 [Example C19]
25 | 6.44 | O=C(NCCCCO)c1[nH]c2ncccc2c1Sc1ccc(Cl)cc1 [Example C21]
26 | 5.96 | O=C(c1[nH]c2ncccc2c1Sc1ccc(Cl)cc1)N1CCC(O)CC1 [Example C6, {3-[(4-chlorophenyl)sulfanyl]-1H-pyrrolo[2,3-b]pyridin-2-yl}(4-hydroxypiperidin-1-yl)methanone]
27 | 8.23 | Cn1cc2cc(-c3[nH]c4ncccc4c3Sc3ccc(Cl)cc3)ccc2n1 [Example B42]
28 | 5.46 | N#CCCCc1[nH]c2ncccc2c1Sc1ccc(Cl)cc1 [Example F6]
29 | 6.28 | OCCCCc1[nH]c2ncccc2c1Sc1ccc(Cl)cc1 [Example H6]
30 | 6.82 | CC(C)(O)CCc1[nH]c2ncccc2c1Sc1ccc(Cl)cc1 [Example H2, 4-{3-[(4-chlorophenyl)sulfanyl]-1H-pyrrolo[2,3-b]pyridin-2-yl}-2-methylbutan-2-ol]
31 | 7.96 | COC(=O)N1CCC(c2[nH]c3ncccc3c2Sc2ccc(Cl)cc2)CC1 [Example G5, Methyl 4-{3-[(4-chlorophenyl)sulfanyl]-1H-pyrrolo[2,3-b]pyridin-2-yl}piperidine-1-carboxylate]
32 | 8.03 | COC(=O)N1CCC(c2nc3n(C)cccc-3c2Sc2ccc(Cl)cc2)CC1 [Example E32]
33 | 7.50 | CC(C)(O)CN1CCC(c2[nH]c3ncccc3c2Sc2ccc(Cl)cc2)CC1 [Example H5]
34 | 5.68 | C[C@H](CO)NC(=O)c1[nH]c2ncccc2c1Sc1ccc(Cl)cc1 [Example C20]
35 | 7.62 | COC(=O)CN1CCC(c2[nH]c3ncccc3c2Sc2ccc(Cl)cc2)CC1 [Example G7, Methyl (4-{3-[(4-chlorophenyl)sulfanyl]-1H-pyrrolo[2,3-b]pyridin-2-yl}piperidin-1-yl)acetate]

Row | Structure (SMILES) | pIC50
36 | CCOC(=O)CCCc1[nH]c2ncccc2c1Sc1ccc(Cl)cc1 [Example F10] | 6.46
